{"source": "patent US20140348954A1", "about": "“PRODUCT COMPRISING GLUCOMANNAN AND CHITOSAN FOR THE TREATMENT OF GASTROESOPHAGEAL REFLUX DISEASE” (DICOFARM S.P.A., priority 2012, published 2014)", "origin": "cited, not measured here", "target": "transient receptor potential cation channel subfamily V member 1 (TrpV1) (Homo sapiens, UniProt Q8NER1)", "sequence (Q8NER1 whole entry)": "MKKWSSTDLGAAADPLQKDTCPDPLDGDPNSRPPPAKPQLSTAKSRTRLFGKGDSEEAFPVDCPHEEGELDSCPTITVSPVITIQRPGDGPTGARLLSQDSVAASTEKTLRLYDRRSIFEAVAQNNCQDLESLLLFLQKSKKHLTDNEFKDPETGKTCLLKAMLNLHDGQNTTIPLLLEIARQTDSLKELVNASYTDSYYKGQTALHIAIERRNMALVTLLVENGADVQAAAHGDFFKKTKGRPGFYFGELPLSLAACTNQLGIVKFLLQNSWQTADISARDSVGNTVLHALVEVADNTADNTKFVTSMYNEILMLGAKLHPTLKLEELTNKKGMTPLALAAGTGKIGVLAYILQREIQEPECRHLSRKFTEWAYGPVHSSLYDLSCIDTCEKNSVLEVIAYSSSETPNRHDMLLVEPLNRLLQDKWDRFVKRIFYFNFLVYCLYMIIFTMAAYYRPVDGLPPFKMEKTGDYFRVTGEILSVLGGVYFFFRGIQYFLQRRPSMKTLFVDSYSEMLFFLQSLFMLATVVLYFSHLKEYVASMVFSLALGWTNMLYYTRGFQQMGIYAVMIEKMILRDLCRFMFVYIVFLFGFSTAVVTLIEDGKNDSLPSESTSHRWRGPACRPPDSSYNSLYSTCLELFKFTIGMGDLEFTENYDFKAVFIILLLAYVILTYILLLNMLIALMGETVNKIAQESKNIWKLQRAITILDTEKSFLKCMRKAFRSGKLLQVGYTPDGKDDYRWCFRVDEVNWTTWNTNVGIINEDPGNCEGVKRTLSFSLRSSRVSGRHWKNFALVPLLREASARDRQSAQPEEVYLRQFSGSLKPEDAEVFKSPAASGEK", "settings": "inflamed human esophagus due to GERD", "data": [{"smiles": "COc1cc(/C=C/C(=O)CC(=O)/C=C/c2ccc(O)c(OC)c2)ccc1O", "note": "[curcumin]", "values": [{"measurement": "action on TrpV1", "value": "typical activator"}]}]}
